Here are results for eleven compounds from US10441576B2, “Substituted 1,2-dihydro-3H pyrrolo[1,2-c]imidazol-3 one antibacterials” (priority 2015, dated 2019).

What all share (assay type): cell-based
Assay [1] concerns wild-type E. coli A-1261. The assay can be described thus: MIC against E. coli A-1261 in the absence or presence of alkaline phosphatase or esterase. Here is the method: (§1) Minimal Inhibitory Concentrations (MICs; mg/L) were determined in cation-adjusted Mueller-Hinton Broth by a microdilution method following the description given in “Methods for Dilution Antimicrobial Susceptibility Tests for Bacteria that Grow Aerobically”, Approved standard, 7th ed., Clinical and Laboratory Standards Institute (CLSI) Document M7-A7, Wayne, Pa., USA (2006).
All Example compounds were tested against wild-type E. coli A-1261 in the absence of alkaline phosphatase or esterase, in the presence of an alkaline phosphatase and in the presence of an esterase. The corresponding antibacterial test results are given in Table 2 hereafter (MICs in mg/L).

Another assay concerns E. coli ATCC25922. The assay can be described thus: Bacterial growth minimal inhibitory concentration (microdilution, cation-adjusted Mueller-Hinton Broth). The conditions noted are these: Escherichia coli, quinolone-sensitive strain. Here is the method:
as §1
(§2) All Reference Example compounds were tested against several Gram-negative bacteria. […] The corresponding antibacterial test results are given in Table 1 hereafter (MICs in mg/L).
Background: Broth dilution looks for growth in wells or tubes with falling amounts of substance.

The test system of the next assay is K. pneumoniae A-651. Described as above. Particulars: Klebsiella pneumoniae, A651; multiply resistant strain (in particular quinolone-resistant). Here is the method: as §1, §2
Another assay deals with P. aeruginosa ATCC27853. Described as above. Particulars: Pseudomonas aeruginosa, quinolone-sensitive strain. Here is the method: as §1, §2
In assay [2] the test system is wild-type E. coli A-1261. The description is as above. Particulars: Escherichia coli, quinolone-sensitive strain. Here is the method:
as §1, §2

[3] abbreviates: Escherichia coli; alkaline phosphatase 2 i.U./mL; read-out: MIC for E. coli A-1261 In the presence of an alkaline phosphatase (2 i.U./mL).
Where [4] appears, read: Escherichia coli; esterase 10 i.U./mL; read-out: MIC for E. coli A-1261 In the presence of an esterase (10 i.U./mL).
The mark [5] stands for this setting: Escherichia coli; read-out: MIC for E. coli A-1261 In the absence of alkaline phosphatase or esterase.
Where [6] appears, read: Escherichia coli, read-out: MIC for E. coli A-1261 In the absence of alkaline phosphatase or esterase.
[7] abbreviates: Escherichia coli, read-out: MIC for E. coli A-1261 In the presence of an alkaline phosphatase (2 i.U./mL).
The mark [8] stands for this setting: Escherichia coli, read-out: MIC for E. coli A-1261 In the presence of an esterase (10 i.U./mL).

Values after ≈ are worked out from the molar mass of the structure shown.

In the case of `C[C@@](CCN1Cc2cc(C#CC#C[C@H]3C[C@@H]3COP(=O)(O)O)cn2C1=O)(C(=O)NO)S(C)(=O)=O` [Example 4, ((1S,2S)-2-((2-((R)-4-(hydroxyamino)-3-methyl-3-(methylsulfonyl)-4-oxobutyl)-3-oxo-2,3-dihydro-1H-pyrrolo[1,2-c]imidazol-6-yl)buta-1,3-diyn-1-yl)cyclopropyl)methyl dihydrogen phosphate], the MIC is 0.25 µg/mL with wild-type E. coli A-1261 [1] (setting [3]), > 8 µg/mL in the assay on wild-type E. coli A-1261 [1] (setting [4]) and > 8 µg/mL in the assay on wild-type E. coli A-1261 [1] (setting [5]).

In the case of “(R)-(1-((2-(4-(hydroxyamino)-3-methyl-3-(methylsulfonyl)-4-oxobutyl)-3-oxo-2,3-dihydro-1H-pyrrolo[1,2-c]imidazol-6-yl)buta-1,3-diyn-1-yl)cyclopropyl)methyl hydrogen sulfate [Example 8]”, in the assay with wild-type E. coli A-1261 [1] (absence of alkaline phosphatase or esterase), the “MIC for E. coli A-1261 In the absence of alkaline phosphatase or esterase” value amounted to 2 µg/mL. In addition, the “MIC for E. coli A-1261 In the presence of an alkaline phosphatase (2 i.U./mL)” value in the assay on wild-type E. coli A-1261 [1] (alkaline phosphatase 2 i.U./mL) was found to be 2 µg/mL. Moreover, the “MIC for E. coli A-1261 In the presence of an esterase (10 i.U./mL)” value in the assay with wild-type E. coli A-1261 [1] (esterase 10 i.U./mL) was 2 µg/mL.

In the case of `C[C@@](CCN1Cc2cc(C#CC#CC3(CO)CC3)cn2C1=O)(C(=O)NOC(=O)CCc1ccccc1OP(=O)(O)O)S(C)(=O)=O` [Example 3, (R)-2-(3-((4-(6-((1-(hydroxymethyl)cyclopropyl)buta-1,3-diyn-1-yl)-3-oxo-1H-pyrrolo[1,2-c]imidazol-2(3H)-yl)-2-methyl-2-(methylsulfonyl)butanamido)oxy)-3-oxopropyl)phenyl dihydrogen phosphate], the MIC was found to be 8 µg/mL in the assay on wild-type E. coli A-1261 [1] (setting [6]), 0.5 µg/mL in the assay on wild-type E. coli A-1261 [1] (setting [7]) and 8 µg/mL in the assay with wild-type E. coli A-1261 [1] (setting [8]).

Turning to `C[C@@](CCN1Cc2cc(C#CC#CC3(CO)CC3)cn2C1=O)(C(=O)NOP(=O)(O)O)S(C)(=O)=O.N` [Example 7, mono-ammonium (R)-((4-(6-((1-(hydroxymethyl)cyclopropyl)buta-1,3-diyn-1-yl)-3-oxo-1H-pyrrolo[1,2-c]imidazol-2(3H)-yl)-2-methyl-2-(methylsulfonyl)butanamido)oxy)phosphonate], the figures for the MIC in the assay with wild-type E. coli A-1261 [1] (setting [3]), in the assay on wild-type E. coli A-1261 [1] (setting [4]) and in the assay on wild-type E. coli A-1261 [1] (setting [5]) were 1 µg/mL, 4 µg/mL and 4 µg/mL, respectively.

Regarding `C[C@@](CCN1Cc2cc(C#CC#C[C@H]3C[C@@H]3CO)cn2C1=O)(C(=O)NO)S(C)(=O)=O` [RE2, (R)—N-hydroxy-4-(6-(((1S,2S)-2-(hydroxymethyl)cyclopropyl)buta-1,3-diyn-1-yl)-3-oxo-1H-pyrrolo[1,2-c]imidazol-2(3H)-yl)-2-methyl-2-(methylsulfonyl)butanamide], the MIC was found to be 0.25 µg/mL (≈ 0.577 µM) with E. coli ATCC25922, 0.25 µg/mL (≈ 0.577 µM) with K. pneumoniae A-651, 0.25 µg/mL (≈ 0.577 µM) in the assay on P. aeruginosa ATCC27853 and 0.125 µg/mL (≈ 0.288 µM) with wild-type E. coli A-1261 [2].

In the case of `C[C@@](CCN1Cc2cc(C#CC#CC3(COC(=O)CCc4ccccc4OP(=O)(O)O)CC3)cn2C1=O)(C(=O)NO)S(C)(=O)=O` [Example 2, (R)-(1-((2-(4-(hydroxyamino)-3-methyl-3-(methylsulfonyl)-4-oxobutyl)-3-oxo-2,3-dihydro-1H-pyrrolo[1,2-c]imidazol-6-yl)buta-1,3-diyn-1-yl)cyclopropyl)methyl 3-(2-(phosphonooxy)phenyl)propanoate], the MIC in the assay on wild-type E. coli A-1261 [1] (setting [6]) came out at 8 µg/mL; with wild-type E. coli A-1261 [1] (setting [7]) it was 1 µg/mL; in the assay with wild-type E. coli A-1261 [1] (setting [8]), 1 µg/mL.

As for `C[C@@](CCN1Cc2cc(C#CC#C[C@H]3C[C@]3(F)COP(=O)(O)O)cn2C1=O)(C(=O)NO)S(C)(=O)=O` [Example 6, ((1R,2R)-1-fluoro-2-((2-((R)-4-(hydroxyamino)-3-methyl-3-(methylsulfonyl)-4-oxobutyl)-3-oxo-2,3-dihydro-1H-pyrrolo[1,2-c]imidazol-6-yl)buta-1,3-diyn-1-yl)cyclopropyl)methyl dihydrogen phosphate], the MIC in the assay with wild-type E. coli A-1261 [1] (setting [3]) is 0.5 µg/mL; in the assay with wild-type E. coli A-1261 [1] (setting [4]) it was > 8 µg/mL; in the assay with wild-type E. coli A-1261 [1] (setting [5]) it was > 8 µg/mL.

On to `C[C@@](CCN1Cc2cc(C#CC#CC3(COC(=O)CN4CCOCC4)CC3)cn2C1=O)(C(=O)NO)S(C)(=O)=O` [Example 1, (R)-(1-((2-(4-(hydroxyamino)-3-methyl-3-(methylsulfonyl)-4-oxobutyl)-3-oxo-2,3-dihydro-1H-pyrrolo[1,2-c]imidazol-6-yl)buta-1,3-diyn-1-yl)cyclopropyl)methyl 2-morpholinoacetate], for which the MIC in the assay with wild-type E. coli A-1261 [1] (setting [3]) stood at 1 µg/mL; with wild-type E. coli A-1261 [1] (setting [4]), 0.25 µg/mL; with wild-type E. coli A-1261 [1] (setting [5]), 2 µg/mL.

Take `C[C@@](CCN1Cc2cc(C#CC#C[C@H]3C[C@]3(F)CO)cn2C1=O)(C(=O)NO)S(C)(=O)=O` [RE3, (R)-4-(6-(((1R,2R)-2-fluoro-2-(hydroxymethyl)cyclopropyl)buta-1,3-diyn-1-yl)-3-oxo-1H-pyrrolo[1,2-c]imidazol-2(3H)-yl)-N-hydroxy-2-methyl-2-(methylsulfonyl)butanamide]: the MIC in the assay with E. coli ATCC25922 is 0.25 µg/mL (≈ 0.554 µM); against K. pneumoniae A-651, 0.5 µg/mL (≈ 1.11 µM); in the assay with P. aeruginosa ATCC27853, 0.5 µg/mL (≈ 1.11 µM); with wild-type E. coli A-1261 [2] it was 0.25 µg/mL (≈ 0.554 µM).

As for `C[C@@](CCN1Cc2cc(C#CC#C[C@H]3C[C@@H]3COC(=O)CCc3ccccc3OP(=O)(O)O)cn2C1=O)(C(=O)NO)S(C)(=O)=O` [Example 5, ((1S,2S)-2-((2-((R)-4-(hydroxyamino)-3-methyl-3-(methylsulfonyl)-4-oxobutyl)-3-oxo-2,3-dihydro-1H-pyrrolo[1,2-c]imidazol-6-yl)buta-1,3-diyn-1-yl)cyclopropyl)methyl 3-(2-(phosphonooxy)phenyl)propanoate], the MIC stood at 4 µg/mL in the assay with wild-type E. coli A-1261 [1] (setting [6]), 0.25 µg/mL with wild-type E. coli A-1261 [1] (setting [7]) and 0.25 µg/mL with wild-type E. coli A-1261 [1] (setting [8]).

For `C[C@@](CCN1Cc2cc(C#CC#CC3(CO)CC3)cn2C1=O)(C(=O)NO)S(C)(=O)=O` [RE1, (R)—N-hydroxy-4-(6-((1-(hydroxymethyl)cyclopropyl)buta-1,3-diyn-1-yl)-3-oxo-1H-pyrrolo[1,2-c]imidazol-2(3H)-yl)-2-methyl-2-(methylsulfonyl)butanamide], the MIC is 0.5 µg/mL (≈ 1.15 µM) against E. coli ATCC25922, 1 µg/mL (≈ 2.31 µM) with K. pneumoniae A-651, 1 µg/mL (≈ 2.31 µM) with P. aeruginosa ATCC27853 and 0.25 µg/mL (≈ 0.577 µM) with wild-type E. coli A-1261 [2].
